According to patent US20080227803A1, “Indolomorphinan Derivative Having Carboxy in 6'-Position” (SHIOONOGI & CO., LTD., a legal entity of Japan, priority 2004, published 2008):

What was measured:
opioid δ receptor = molecular target: T1, opioid δ receptor (Rattus norvegicus, UniProt P33533); experiment: Opioid receptor binding assay, [3H]-DADLE, rat cerebrum membrane fraction
T1 construct: Four hundred and eighty microliters of the rat cerebrum membrane fraction; from tissue; host or cells: rat (Slc:SD) cerebrum, crude membrane fraction

[1] = tested on: retching and emesis induced by morphine; experiment: Effect on the retching and emesis induced by morphine in ferrets; assay type: in vivo; conditions: for Duration / Occurrence times / Latent period: mean ± SE; for Latent period: no symptom = 30 min; for Number of individuals with the symptom/Number of cases: morphine 0.6 mg/kg s.c., 30 min observation
Method: About 30 minutes after feeding, ferrets were placed into observation cages and administered with the test compound. The test compound was dissolved into 15% Solutol (Registered trademark) HS15 containing 5% of N,N-dimethylacetamide and 5% of N-methyl-glucamine, and administered at 5 mg/kg. Thirty minutes after administration of the test compound solution, morphine at 0.6 mg/kg was subcutaneously administered in a solution volume of 1 mL/kg, and the retching and emesis symptoms were visually observed for 30 minutes after administration of morphine.
The frequency, latency (the period from the administration of morphine to the initial occurrence of emetic symptom) and duration (the period from the initial emesis to the final emesis) of retching (rhythmical contraction of abdomen), emesis (emetic behavior to discharge the vomit or similar behavior) and both the symptoms were tabulated.
Meanwhile, the latency of a case showing no emesis was assumed to be 30 minutes that were the longest time of observation, and a duration of less than 1 minute after the occurrence of emesis was expressed as 1 minute for the sake of convenience.

[2] = Retching + emesis, I-1 0.05 mg/kg
[3] = Retching + emesis, I-1 0.5 mg/kg

T1 sequence (P33533 whole entry): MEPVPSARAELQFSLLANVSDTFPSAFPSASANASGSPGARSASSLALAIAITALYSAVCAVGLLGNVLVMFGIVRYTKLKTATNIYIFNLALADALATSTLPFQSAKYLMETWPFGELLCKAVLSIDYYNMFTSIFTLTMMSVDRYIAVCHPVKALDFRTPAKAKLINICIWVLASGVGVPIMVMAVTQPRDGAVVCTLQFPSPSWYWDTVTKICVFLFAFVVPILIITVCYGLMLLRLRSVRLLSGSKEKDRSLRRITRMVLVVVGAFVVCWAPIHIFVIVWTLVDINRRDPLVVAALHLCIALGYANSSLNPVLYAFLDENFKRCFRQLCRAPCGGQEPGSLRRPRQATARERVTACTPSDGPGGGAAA

CC(OC(=O)c1ccc2c3c([nH]c2c1)[C@@H]1Oc2c(O)ccc4c2[C@@]12CCN(CC1CC1)[C@H](C4)[C@]2(O)C3)OC(=O)C(C)C (stereo partly drawn) [Compound I-9] was tested, and the Ki (opioid δ receptor) was 1.25 nM.

Cc1oc(=O)oc1COC(=O)c1ccc2c3c([nH]c2c1)[C@@H]1Oc2c(O)ccc4c2[C@@]12CCN(CC1CC1)[C@H](C4)[C@]2(O)C3 [Compound I-3] was tested, and the Ki (opioid δ receptor) was 1.06 nM.

O=C(O)c1ccc2c3c([nH]c2c1)[C@@H]1Oc2c(O)ccc4c2[C@@]12CCN(CC1CC1)[C@H](C4)[C@]2(O)C3 [Compound I-1, 17-cyclopropylmethyl-6,7-didehydro-4,5α-epoxy-3,14β-dihydroxy-6′-carboxy-6,7-2′,3′-indolomorphinan] showed a Ki (opioid δ receptor) of 0.62 nM, a Duration ([1]; Emesis, I-1 0.05 mg/kg) of 0 ± 0 min and an Occurrence times ([1]; Emesis, I-1 0.05 mg/kg) of 0 ± 0. The Latent period ([1]; Emesis, I-1 0.05 mg/kg) was 30 ± 0 min, the “Number of individuals with the symptom/Number of cases” value ([1]; Emesis, I-1 0.05 mg/kg) was 0/6 and the Duration ([1]; Emesis, I-1 0.5 mg/kg) was 0 ± 0 min. For the same compound, the Occurrence times ([1]; Emesis, I-1 0.5 mg/kg) was 0 ± 0, the Latent period ([1]; Emesis, I-1 0.5 mg/kg) was 30 ± 0 min and the “Number of individuals with the symptom/Number of cases” value ([1]; Emesis, I-1 0.5 mg/kg) was 0/6. For the same compound, the Duration ([1]; Emesis, I-1 5 mg/kg) was 0 ± 0 min, the Occurrence times ([1]; Emesis, I-1 5 mg/kg) was 0 ± 0 and the Latent period ([1]; Emesis, I-1 5 mg/kg) was 30 ± 0 min. For the same compound, the “Number of individuals with the symptom/Number of cases” value ([1]; Emesis, I-1 5 mg/kg) was 0/6, the Duration [1, 2] was 0 ± 0 min and the Occurrence times [1, 2] was 0 ± 0. The Latent period [1, 2] was 30 ± 0 min, the “Number of individuals with the symptom/Number of cases” value [1, 2] was 0/6 and the Duration [1, 3] was 0 ± 0 min. The Occurrence times [1, 3] was 0 ± 0, the Latent period [1, 3] was 30 ± 0 min and the “Number of individuals with the symptom/Number of cases” value [1, 3] was 0/6. The Duration ([1]; Retching + emesis, I-1 5 mg/kg) was 0 ± 0 min, the Occurrence times ([1]; Retching + emesis, I-1 5 mg/kg) was 0 ± 0 and the Latent period ([1]; Retching + emesis, I-1 5 mg/kg) was 30 ± 0 min. The “Number of individuals with the symptom/Number of cases” value ([1]; Retching + emesis, I-1 5 mg/kg) was 0/6, the Duration ([1]; Retching, I-1 0.05 mg/kg) was 0 ± 0 min and the Occurrence times ([1]; Retching, I-1 0.05 mg/kg) was 0 ± 0. For the same compound, the Latent period ([1]; Retching, I-1 0.05 mg/kg) was 30 ± 0 min, the “Number of individuals with the symptom/Number of cases” value ([1]; Retching, I-1 0.05 mg/kg) was 0/6 and the Duration ([1]; Retching, I-1 0.5 mg/kg) was 0 ± 0 min. For the same compound, the Occurrence times ([1]; Retching, I-1 0.5 mg/kg) was 0 ± 0, the Latent period ([1]; Retching, I-1 0.5 mg/kg) was 30 ± 0 min and the “Number of individuals with the symptom/Number of cases” value ([1]; Retching, I-1 0.5 mg/kg) was 0/6. The Duration ([1]; Retching, I-1 5 mg/kg) was 0 ± 0 min, the Occurrence times ([1]; Retching, I-1 5 mg/kg) was 0 ± 0 and the Latent period ([1]; Retching, I-1 5 mg/kg) was 30 ± 0 min. The “Number of individuals with the symptom/Number of cases” value ([1]; Retching, I-1 5 mg/kg) was 0/6.

In the case of CCCC(=O)OCOC(=O)c1ccc2c3c([nH]c2c1)[C@@H]1Oc2c(O)ccc4c2[C@@]12CCN(CC1CC1)[C@H](C4)[C@]2(O)C3 [Compound I-4], the Ki (opioid δ receptor) is reported as 1.14 nM.

Work on CC(C)(C)C(=O)OCOC(=O)c1ccc2c3c([nH]c2c1)[C@@H]1Oc2c(O)ccc4c2[C@@]12CCN(CC1CC1)[C@H](C4)[C@]2(O)C3 [Compound I-2] yielded a Ki (opioid δ receptor) of 1.7 nM.

For CC(=O)OC(C)OC(=O)c1ccc2c3c([nH]c2c1)[C@@H]1Oc2c(O)ccc4c2[C@@]12CCN(CC1CC1)[C@H](C4)[C@]2(O)C3 (stereo partly drawn) [Compound I-8], the Ki (opioid δ receptor) was 1.38 nM.
